US10300130B2, “Cytomegalovirus vaccines and methods of production” (The Trustees of Princeton University, priority 2007, dated 2019)

How the values were obtained:
[1] = tested on: BADrUL131; experiment: Dependence of infection on endosome acidification (IE1-positive ARPE-19 cells), BADrUL131; type: cell-based, HCMV; conditions: 1 h pretreatment, 1 pfu/cell, IE1 16 h later
Experimental: (§1) FIGS. 3A-3B. Effects of inhibitors of endosome acidification and virion source on HCMV entry into ARPE-19 cells. Experiments were performed in triplicate, and the number of positive cells in drug-treated relative to untreated cultures is reported. FIG. 3A: Cells were pretreated with NH4Cl or BFA for 1 h, inoculated with epiBADrUL131 or fibroBADrUL131 (1 pfu/cell) and stained for IE 1 16 h later. FIG. 3B: Cells were pretreated with 50 mM NH4Cl or 40 nM BFA for 1 h, and then inoculated with BADrUL131 (0.1 pfu/cell) or FIXwt (0.01 pfu/cell) produced in the indicated cell types and stained for IE1 16 h later.
(§2) ARPE-19 cells were pretreated with NH4Cl or Bafilomycin A1 (BFA) (Sigma) for 1 h at 37° C., followed by infection in the continued presence of the inhibitor. 16 h later, cultures were fixed in 2% paraformaldehyde and permeabilized with 0.1% Triton X-100. IE1 was identified by immunofluorescence using monoclonal antibody IB12 (21) plus Alexa 546-conjugated secondary antibody and nuclei were stained with DAPI. Inhibition was calculated as the percentage of IE1-expressing drug-treated relative to untreated cells.
Many viruses that enter cells by endocytosis (1, 4, 10) require acidification of endosomes for the virion envelope to fuse with the endosomal membrane and release the capsid into the cytoplasm. NH4Cl. which buffers endosomal pH, and bafilomycin A1 (BFA), which blocks the endosomal ATPase proton pump, were tested for their effect on infection of ARPE-19 cells. After pretreatment with either agent, cells were infected and cultured in drug containing medium for a further 16 h. Successful infections were scored by assaying for IE1-positive cells.

[2] = tested on: BFXwt; experiment: Dependence of infection on endosome acidification (IE1-positive ARPE-19 cells), BFXwt; type: cell-based, HCMV; conditions: 50 mM NH4Cl or 40 nM BFA, 0.01 pfu/cell
Experimental: as §1, §2
The effect of endosomal pH on entry of the BFXwt clinical isolate into ARPE-19 cells was also assayed (FIG. 3B. right panel).

SMILES	effect of pretreatment on epiBADrUL131 infection (IE1-positive cells) [1]	effect of pretreatment on fibroBADrUL131 infection (IE1 expression) [1]	effect on number of IE1-positive ARPE-19 cells, epithelial cell-derived BFXwt [2]	effect on number of IE1-positive ARPE-19 cells, fibroblast-generated BFXwt [2]
CO/C1=C\C(C)=C\[C@@H](C)[C@@H](O)[C@@H](C)C/C(C)=C/C=C/[C@H](OC)[C@@H]([C@@H](C)[C@@H](O)[C@H](C)[C@@]2(O)C[C@@H](O)[C@H](C)[C@@H](C(C)C)O2)OC1=O [BFA, Bafilomycin A1]	only a modest effect	inhibited IE1 expression	only a slight inhibition	significantly reduced
Cl.N [NH4Cl]	only a modest effect	inhibited IE1 expression	only a slight inhibition	significantly reduced
